The target of one test is DGKα (Homo sapiens (Human), UniProt P23743). Kind of test: Biochemical DGK IC50 assay (ADP-Glo, lipid micelle substrate), DGKα. Also: full length DGKα 7.5 nM. The following applies: full length DGKα […], ATP 140 μM, DAG 80 μM. The method, boiled down: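 Luminescent ADP-Glo detection followed a 1 h room-temperature reaction of full-length DGKα on DAG/PS micelles, in HEPES buffer with 10 mM MgCl2, 0.01 mM CaCl2, 0.1 mM Na3VO4, BSA and Tween-20. IC50 derived from inhibition across increasing compound concentrations.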
Sequence of DGKα (P23743 whole entry): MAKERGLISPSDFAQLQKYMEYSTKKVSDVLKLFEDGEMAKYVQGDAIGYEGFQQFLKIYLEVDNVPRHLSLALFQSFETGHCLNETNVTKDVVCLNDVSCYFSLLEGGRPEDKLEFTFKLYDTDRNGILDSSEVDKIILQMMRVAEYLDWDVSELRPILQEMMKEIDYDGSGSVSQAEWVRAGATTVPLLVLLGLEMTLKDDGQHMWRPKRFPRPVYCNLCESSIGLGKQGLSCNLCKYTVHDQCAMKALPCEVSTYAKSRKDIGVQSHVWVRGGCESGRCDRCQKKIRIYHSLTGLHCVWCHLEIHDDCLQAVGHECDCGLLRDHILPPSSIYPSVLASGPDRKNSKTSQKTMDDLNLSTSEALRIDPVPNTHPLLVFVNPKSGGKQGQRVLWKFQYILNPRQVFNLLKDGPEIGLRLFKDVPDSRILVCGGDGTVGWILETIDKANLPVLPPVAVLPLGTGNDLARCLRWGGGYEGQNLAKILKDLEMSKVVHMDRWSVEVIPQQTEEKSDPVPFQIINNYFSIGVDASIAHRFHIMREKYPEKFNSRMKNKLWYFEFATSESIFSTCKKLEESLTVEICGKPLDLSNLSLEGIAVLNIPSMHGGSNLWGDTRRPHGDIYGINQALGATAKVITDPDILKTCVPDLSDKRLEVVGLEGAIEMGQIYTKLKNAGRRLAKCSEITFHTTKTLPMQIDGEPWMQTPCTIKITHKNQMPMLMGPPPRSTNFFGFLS
(ADP-Glo turns the ADP formed in a reaction into a luminescent signal.)

Another test concerns the target DGKζ (Homo sapiens (Human), UniProt Q13574). Description: Biochemical DGK IC50 assay (ADP-Glo, lipid micelle substrate), DGKζ. To be noted: full length DGKζ 0.5 nM, ATP 140 μM, DAG 80 μM. The gist of the method:
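ADP-Glo luminescence measured ADP made in a 1 h room-temperature reaction. The enzyme was Sf9-expressed, purified full-length human DGKζ, and the substrate was DAG/PS micelles. Assay buffer held 50 mM HEPES, 10 mM MgCl2, 0.01 mM CaCl2, 0.1 mM Na3VO4 and 0.01% BSA. IC50 was derived from activity inhibition over a compound concentration series.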

As a reminder, the IC50 is the midpoint of a concentration-inhibition curve.

Sequence of DGKζ (Q13574 other isoform, or with tags, fused parts or gaps): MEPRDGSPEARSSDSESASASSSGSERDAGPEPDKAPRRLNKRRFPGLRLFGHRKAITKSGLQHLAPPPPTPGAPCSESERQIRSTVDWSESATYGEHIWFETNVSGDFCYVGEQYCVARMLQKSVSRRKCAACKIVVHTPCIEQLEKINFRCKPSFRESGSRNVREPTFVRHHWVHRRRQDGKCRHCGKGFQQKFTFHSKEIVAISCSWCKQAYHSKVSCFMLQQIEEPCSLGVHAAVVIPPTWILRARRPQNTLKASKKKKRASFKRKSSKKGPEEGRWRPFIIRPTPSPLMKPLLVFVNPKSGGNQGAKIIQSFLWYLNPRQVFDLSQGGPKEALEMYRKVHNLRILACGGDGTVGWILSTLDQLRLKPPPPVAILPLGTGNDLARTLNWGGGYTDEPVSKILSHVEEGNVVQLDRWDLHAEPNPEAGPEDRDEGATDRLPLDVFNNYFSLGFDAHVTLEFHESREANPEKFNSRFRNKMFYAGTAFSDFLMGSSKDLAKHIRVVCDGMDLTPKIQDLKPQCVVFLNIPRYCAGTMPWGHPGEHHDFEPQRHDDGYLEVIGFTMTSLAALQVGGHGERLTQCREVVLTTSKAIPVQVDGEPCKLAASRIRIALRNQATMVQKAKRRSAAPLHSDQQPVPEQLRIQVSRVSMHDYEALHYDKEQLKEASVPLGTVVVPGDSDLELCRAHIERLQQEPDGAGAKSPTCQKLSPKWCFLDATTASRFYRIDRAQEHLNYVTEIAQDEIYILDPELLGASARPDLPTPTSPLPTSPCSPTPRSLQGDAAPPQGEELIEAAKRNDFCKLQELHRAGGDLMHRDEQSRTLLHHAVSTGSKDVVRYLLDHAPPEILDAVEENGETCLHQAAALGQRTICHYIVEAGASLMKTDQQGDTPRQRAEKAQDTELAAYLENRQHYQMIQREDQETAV

`CC[C@H]1CN(C(C)c2ccc(C(=O)N(C)C)c(F)c2)[C@H](CC)CN1c1cc(=O)n(C)c2cn(CC#N)nc12` (single isomer, unassigned) [Compound A4a]: the IC50 at DGKα was 2690 nM; against DGKζ it was 569 nM.

As for `CC[C@H]1CN(C(C)c2ccc3nc(C)sc3c2)[C@H](CC)CN1c1nc(=O)n(C)c2cn(CC#N)nc12` (some centres unmarked) [Compound A124], the IC50 against DGKα worked out at 433 nM; against DGKζ, 39 nM.

With `CCC(c1ccn2nc(C)cc2n1)N1C[C@H](C)N(c2cc(=O)n(C)c3cn(CC#N)nc23)C[C@H]1CC` (single isomer, unassigned) [Compound A171a], the IC50 on DGKα was determined as 107 nM; at DGKζ it was 116 nM.

For the molecule `CC[C@H]1CN(C(C)c2ccc3nc(C)sc3n2)[C@H](CC)CN1c1cc(=O)n(C)c2cn(CC#N)nc12` (single isomer, unassigned) [Compound A133b], the IC50 was found to be 61 nM at DGKα and 24 nM against DGKζ.

In the case of `CC[C@H]1CN(C(C)c2ccc3ncsc3n2)[C@H](CC)CN1c1cc(=O)n(C)c2cn(CC#N)nc12` (single isomer, unassigned) [Compound A99b], the results for the IC50 against DGKα and at DGKζ were 24 nM and 8.6 nM, respectively.

`CC[C@H]1CN(C(C)c2ccn3nc(C)c(F)c3n2)[C@H](CC)CN1c1cc(=O)n(C)c2cn(CC#N)nc12` (single isomer, unassigned) [Compound A160a]: the figures for the IC50 at DGKα and at DGKζ were 5970 nM and 4120 nM, respectively.

Turning to `CC[C@H]1CN(C(C)c2ccc(OC)c(C)n2)[C@H](CC)CN1c1cc(=O)n(C)c2cn(CC#N)nc12` (stereo partly drawn) [Compound A55, 2-(7-((2S,5R)-2,5-diethyl-4-(1-(5-methoxy-6-methylpyridin-2-yl)ethyl)piperazin-1-yl)-4-methyl-5-oxo-4,5-dihydro-2H-pyrazolo[4,3-b]pyridin-2-yl)acetonitrile], the IC50 against DGKα stood at 2340 nM; against DGKζ, 653 nM.

On to `CC[C@H]1CN(C(C)c2nc3c(s2)CCCC3)[C@H](CC)CN1c1cc(=O)n(C)c2cn(CC#N)nc12` (single isomer, unassigned) [Compound A36a], for which the IC50 on DGKα worked out at 164 nM; at DGKζ, 57 nM.

With `CC[C@H]1CN(C(C)c2ccn3ncc(F)c3c2)[C@H](CC)CN1c1cc(=O)n(C)c2cn(CC#N)nc12` (single isomer, unassigned) [Compound A165b], the IC50 against DGKα was 2440 nM; at DGKζ, 1580 nM.

On to `CC[C@H]1CN(C(C)c2ccc3ncc(F)n3n2)[C@H](CC)CN1c1cc(=O)n(C)c2cn(CC#N)nc12` (single isomer, unassigned) [Compound A168a], for which the IC50 on DGKα stood at 3410 nM; on DGKζ, 3600 nM.

Turning to `CC[C@H]1CN(C(C)c2ccc(OC)cc2)[C@H](CC)CN1c1cc(=O)n(C)c2cn(CC#N)nc12` (single isomer, unassigned) [Compound A34b], the results for the IC50 at DGKα and at DGKζ were 596 nM and 2940 nM, respectively.

In the case of `CC[C@H]1CN(C(C)c2ccc(C)c(C)n2)[C@H](CC)CN1c1cc(=O)n(C)c2cn(CC#N)nc12` (single isomer, unassigned) [Compound A54b], the IC50 on DGKα turned out to be 1910 nM; against DGKζ it was 1890 nM.

`CC[C@H]1CN(C(C)c2ccc3nc(OCCF)sc3n2)[C@H](CC)CN1c1cc(=O)n(C)c2cn(CC#N)nc12` (single isomer, unassigned) [Compound A147b]: the IC50 on DGKα is 1570 nM; on DGKζ, 1510 nM.

As to `CC[C@H]1CN(C(C)c2ccc3nc(C)sc3n2)[C@H](CC)CN1c1c(C#N)c(=O)n(C)c2cn(CC#N)nc12` (single isomer, unassigned) [Compound A140a], the IC50 against DGKα worked out at 840 nM; against DGKζ, 3380 nM.

For the molecule `CC[C@H]1CN(C(C)c2ccn3nc(C)c(C)c3n2)[C@H](CC)CN1c1cc(=O)n(C)c2cn(CC#N)nc12` (single isomer, unassigned) [Compound A156a], the IC50 is more than 10000 nM at DGKα and 5130 nM against DGKζ.

As for `CC#CCn1cc2c(n1)c(N1C[C@@H](CC)N(C(C)c3ccc4scnc4c3)C[C@@H]1C)cc(=O)n2C` (stereo partly drawn) [Compound A119, 7-((2S,5R)-4-(1-(benzo[d]thiazol-5-yl)ethyl)-5-ethyl-2-methylpiperazin-1-yl)-2-(but-2-yn-1-yl)-4-methyl-2,4-dihydro-5H-pyrazolo[4,3-b]pyridin-5-one], the IC50 was 193 nM against DGKα and 859 nM at DGKζ.

In the case of `CC[C@H]1CN(C(C)c2ccc(C(=O)N3CC(OC)C3)cc2)[C@H](CC)CN1c1cc(=O)n(C)c2cn(CC#N)nc12` (single isomer, unassigned) [Compound A1a], the results for the half-maximal inhibitory concentration (IC50) on DGKα and at DGKζ were 23 nM and 1440 nM, respectively.

For `CC[C@H]1CN(C(C)c2ccc(CN3CC(F)(F)C3)cc2)[C@H](CC)CN1c1cc(=O)n(C)c2cn(CC#N)nc12` (stereo partly drawn) [Compound A27, 2-(7-((2S,5R)-4-(1-(4-((3,3-difluoroazetidin-1-yl)methyl)phenyl)ethyl)-2,5-diethylpiperazin-1-yl)-4-methyl-5-oxo-4,5-dihydro-2H-pyrazolo[4,3-b]pyridin-2-yl)acetonitrile], the IC50 turned out to be 50 nM against DGKα and 202 nM at DGKζ.

With `CC[C@H]1CN(C(C)c2ccc(COC3COC3)cc2)[C@H](CC)CN1c1cc(=O)n(C)c2cn(CC#N)nc12` (stereo partly drawn) [Compound A16, 2-(7-((2S,5R)-2,5-diethyl-4-(1-(4-((oxetan-3-yloxy)methyl)phenyl)ethyl)piperazin-1-yl)-4-methyl-5-oxo-4,5-dihydro-2H-pyrazolo[4,3-b]pyridin-2-yl)acetonitrile], the IC50 against DGKα was 204 nM; at DGKζ, 170 nM.

Regarding `CC[C@H]1CN(C(C)c2ccc3nsnc3c2)[C@H](CC)CN1c1cc(=O)n(C)c2cn(CC#N)nc12` (single isomer, unassigned) [Compound A106b], the IC50 against DGKα came out at 932 nM; at DGKζ, 600 nM.

As to `CC#CCn1cc2c(n1)c(N1C[C@@H](CC)N(C(C)c3ccc4nc(C)sc4c3F)C[C@@H]1C)cc(=O)n2C` (single isomer, unassigned) [Compound A116a], the IC50 at DGKα is 2330 nM; at DGKζ, 181 nM.

As for `CC[C@H]1CN(C(C)c2ccc3ncoc3c2)[C@H](CC)CN1c1cc(=O)n(C)c2cn(CC#N)nc12` (single isomer, unassigned) [Compound A84b], the IC50 at DGKα was 1170 nM; on DGKζ, 3180 nM.

As for `CC[C@H]1CN(C(C)c2ccc(OC3COC3)c(F)c2)[C@H](CC)CN1c1cc(=O)n(C)c2cn(CC#N)nc12` (single isomer, unassigned) [Compound A23a], the IC50 was 2350 nM against DGKα and 3740 nM at DGKζ.

For the molecule `CC[C@H]1CN(C(C)c2ccc(C(=O)NC)cc2)[C@H](CC)CN1c1cc(=O)n(C)c2cn(CC#N)nc12` (single isomer, unassigned) [Compound A193a], the IC50 on DGKα was determined as 515 nM; against DGKζ, 2870 nM.

Take `CC[C@H]1CN(C(C)c2ccc(C3CC3)c(F)n2)[C@H](CC)CN1c1cc(=O)n(C)c2cn(CC#N)nc12` (stereo partly drawn) [Compound A62, 2-(7-((2S,5R)-4-(1-(5-cyclopropyl-6-fluoropyridin-2-yl)ethyl)-2,5-diethylpiperazin-1-yl)-4-methyl-5-oxo-4,5-dihydro-2H-pyrazolo[4,3-b]pyridin-2-yl)acetonitrile]: the IC50 against DGKα is 21 nM; against DGKζ, 154 nM.

As for `CC#CCn1cc2c(n1)c(N1C[C@@H](CC)N(C(C)c3ccc4c(n3)OCC4)C[C@@H]1C)cc(=O)n2C` (stereo partly drawn) [Compound A200, 2-(but-2-yn-1-yl)-7-((2S,5R)-4-(1-(2,3-dihydrofuro[2,3-b]pyridin-6-yl)ethyl)-5-ethyl-2-methylpiperazin-1-yl)-4-methyl-2,4-dihydro-5H-pyrazolo[4,3-b]pyridin-5-one], the IC50 was less than 23.3 nM at DGKα and 991 nM on DGKζ.

As to `CC[C@H]1CN(C(C)c2cc3c(cc2F)OC(C)(C)CO3)[C@H](CC)CN1c1cc(=O)n(C)c2cn(CC#N)nc12` (stereo partly drawn) [Compound A64, 2-(7-((2S,5R)-2,5-diethyl-4-(1-(7-fluoro-2,2-dimethyl-2,3-dihydrobenzo[b][1,4]dioxin-6-yl)ethyl)piperazin-1-yl)-4-methyl-5-oxo-4,5-dihydro-2H-pyrazolo[4,3-b]pyridin-2-yl)acetonitrile], the IC50 on DGKα was determined as 1040 nM; at DGKζ, 7.8 nM.

Take `CC[C@H]1CN(C(C)c2ccc(OC3CC3)cn2)[C@H](CC)CN1c1cc(=O)n(C)c2cn(CC#N)nc12` (stereo partly drawn) [Compound A201, 2-(7-((2S,5R)-4-(1-(5-cyclopropoxypyridin-2-yl)ethyl)-2,5-diethylpiperazin-1-yl)-4-methyl-5-oxo-4,5-dihydro-2H-pyrazolo[4,3-b]pyridin-2-yl)acetonitrile]: the IC50 came out at 43 nM against DGKα and 123 nM against DGKζ.

Turning to `CC[C@H]1CN(C(C)c2ccc(COC)nc2)[C@H](CC)CN1c1cc(=O)n(C)c2cn(CC#N)nc12` (single isomer, unassigned) [Compound A42a], the concentration for half-maximal inhibition (IC50) was determined as 1960 nM against DGKα and 315 nM against DGKζ.

Take `CC[C@H]1CN(C(C)c2ccc(N)nc2)[C@H](CC)CN1c1cc(=O)n(C)c2cn(CC#N)nc12` (single isomer, unassigned) [Compound A187a]: the IC50 at DGKα was 1990 nM; at DGKζ, more than 10000 nM.

For the molecule `CC[C@H]1CN(C(C)c2cnc3ncsc3c2)[C@H](CC)CN1c1cc(=O)n(C)c2cn(CC#N)nc12` (single isomer, unassigned) [Compound A98b], the IC50 against DGKα was found to be 9470 nM; on DGKζ, 2870 nM.
